System: 857933-349-R-J2-PDC complex spheroid viability
Assay: Anticancer human tumor 857933-349-R-J2-PDC patient-derived colon adenocarcinoma cell line growth inhibition [POLQ]
Conditions: for IC50: curve of first compound; for viability, T/C: stronger effect = lower value
How it was run: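 Patient-derived tumour cells were co-cultured with HUVEC and mesenchymal stem cells as multicellular spheroids at 37 °C. They were treated with POLQ inhibitors (novobiocin, ART-558, RP6685) alone or combined with other agents. Top concentrations were at or near clinical Cmax (otherwise 10 microM; SN-38 at 1 microM), decreasing in half-log steps.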

[1] = second compound 0.0316 µM, first compound 0.0316 µM
[2] = second compound 0.0316 µM, first compound 0.1 µM
[3] = second compound 0.0316 µM, first compound 0.316 µM
[4] = second compound 0.0316 µM, first compound 1 µM
[5] = second compound 0.0316 µM, first compound 3.16 µM
[6] = second compound 0.0316 µM, first compound 10 µM
[7] = second compound 0.1 µM, first compound 0.0316 µM
[8] = second compound 0.1 µM, first compound 0.1 µM
[9] = second compound 0.1 µM, first compound 0.316 µM
[10] = second compound 0.1 µM, first compound 1 µM
[11] = second compound 0.1 µM, first compound 3.16 µM
[12] = second compound 0.1 µM, first compound 10 µM
[13] = second compound 0.316 µM, first compound 0.0316 µM
[14] = second compound 0.316 µM, first compound 0.1 µM
[15] = second compound 0.316 µM, first compound 0.316 µM
[16] = second compound 0.316 µM, first compound 1 µM
[17] = second compound 0.316 µM, first compound 3.16 µM
[18] = second compound 0.316 µM, first compound 10 µM
[19] = second compound 1 µM, first compound 0.0316 µM
[20] = second compound 1 µM, first compound 0.1 µM
[21] = second compound 1 µM, first compound 0.316 µM
[22] = second compound 1 µM, first compound 1 µM
[23] = second compound 1 µM, first compound 3.16 µM
[24] = second compound 1 µM, first compound 10 µM
[25] = second compound 3.16 µM, first compound 0.0316 µM
[26] = second compound 3.16 µM, first compound 0.1 µM
[27] = second compound 3.16 µM, first compound 0.316 µM
[28] = second compound 3.16 µM, first compound 1 µM
[29] = second compound 3.16 µM, first compound 3.16 µM
[30] = second compound 3.16 µM, first compound 10 µM
[31] = second compound 10 µM, first compound 0.0316 µM
[32] = second compound 10 µM, first compound 0.1 µM
[33] = second compound 10 µM, first compound 0.316 µM
[34] = second compound 10 µM, first compound 1 µM
[35] = second compound 10 µM, first compound 3.16 µM
[36] = second compound 10 µM, first compound 10 µM
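Also: spheroids exposed to compounds for seven days before readout.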

CCCS(=O)(=O)Nc1ccc(F)c(C(=O)c2c[nH]c3ncc(-c4ccc(Cl)cc4)cc23)c1F + Nc1ccc(C#CCN(C(=O)Cc2ncc(C(F)(F)F)cc2C(F)(F)F)c2ccc(F)cc2)nn1
IC50 (second compound 0.0316 µM): 6.17 µM | IC50 (second compound 0.1 µM): 6.22 µM | IC50 (second compound 0.316 µM): 5.99 µM | IC50 (second compound 1 µM): 6.43 µM | IC50 (second compound 3.16 µM): 6.48 µM | IC50 (second compound 10 µM): 6.48 µM | viability, T/C [1]: 103% | viability, T/C [2]: 102% | viability, T/C [3]: 102% | viability, T/C [4]: 102% | viability, T/C [5]: 97.5% | viability, T/C [6]: 15.6% | viability, T/C [7]: 93.5% | viability, T/C [8]: 112% | viability, T/C [9]: 88.6% | viability, T/C [10]: 104% | viability, T/C [11]: 102% | viability, T/C [12]: 14.9% | viability, T/C [13]: 103% | viability, T/C [14]: 89% | viability, T/C [15]: 99.6% | viability, T/C [16]: 91% | viability, T/C [17]: 98.3% | viability, T/C [18]: 12.9% | viability, T/C [19]: 116% | viability, T/C [20]: 93% | viability, T/C [21]: 82.1% | viability, T/C [22]: 106% | viability, T/C [23]: 109% | viability, T/C [24]: 17.9% | viability, T/C [25]: 77.1% | viability, T/C [26]: 97.2% | viability, T/C [27]: 99.3% | viability, T/C [28]: 96.8% | viability, T/C [29]: 99.6% | viability, T/C [30]: 23.3% | viability, T/C [31]: 97.7% | viability, T/C [32]: 90.7% | viability, T/C [33]: 93.4% | viability, T/C [34]: 86.5% | viability, T/C [35]: 92% | viability, T/C [36]: 24.6%

O=C(c1cc(Cc2n[nH]c(=O)c3ccccc23)ccc1F)N1CCN(C(=O)C2CC2)CC1 + COC1C(OC(N)=O)C(O)C(Oc2ccc3c(O)c(NC(=O)c4ccc(O)c(CC=C(C)C)c4)c(=O)oc3c2C)OC1(C)C
IC50 (second compound 0.0316 µM): > 10 µM | IC50 (second compound 0.1 µM): > 10 µM | IC50 (second compound 0.316 µM): > 10 µM | IC50 (second compound 1 µM): > 10 µM | IC50 (second compound 3.16 µM): > 10 µM | IC50 (second compound 10 µM): > 10 µM | viability, T/C [1]: 125% | viability, T/C [2]: 126% | viability, T/C [3]: 90.8% | viability, T/C [4]: 100% | viability, T/C [5]: 109% | viability, T/C [6]: 84.1% | viability, T/C [7]: 94% | viability, T/C [8]: 130% | viability, T/C [9]: 94.4% | viability, T/C [10]: 88.2% | viability, T/C [11]: 102% | viability, T/C [12]: 79.3% | viability, T/C [13]: 123% | viability, T/C [14]: 123% | viability, T/C [15]: 112% | viability, T/C [16]: 115% | viability, T/C [17]: 92.9% | viability, T/C [18]: 97% | viability, T/C [19]: 93.4% | viability, T/C [20]: 103% | viability, T/C [21]: 87.1% | viability, T/C [22]: 91.2% | viability, T/C [23]: 104% | viability, T/C [24]: 104% | viability, T/C [25]: 92.8% | viability, T/C [26]: 96.8% | viability, T/C [27]: 96.3% | viability, T/C [28]: 81.6% | viability, T/C [29]: 96.1% | viability, T/C [30]: 86.5% | viability, T/C [31]: 84.5% | viability, T/C [32]: 121% | viability, T/C [33]: 79.3% | viability, T/C [34]: 82.7% | viability, T/C [35]: 120% | viability, T/C [36]: 90%

CC(C)n1c(=O)n(C)c2cnc3cc(F)c(-c4ccc(OCCCN5CCCCC5)nc4)cc3c21 + Nc1ccc(C#CCN(C(=O)Cc2ncc(C(F)(F)F)cc2C(F)(F)F)c2ccc(F)cc2)nn1
IC50 (second compound 0.0316 µM): > 10 µM | IC50 (second compound 0.1 µM): > 10 µM | IC50 (second compound 0.316 µM): > 10 µM | IC50 (second compound 1 µM): > 10 µM | IC50 (second compound 3.16 µM): > 10 µM | IC50 (second compound 10 µM): > 10 µM | viability, T/C [1]: 88.3% | viability, T/C [2]: 89% | viability, T/C [3]: 103% | viability, T/C [4]: 106% | viability, T/C [5]: 93.7% | viability, T/C [6]: 98.8% | viability, T/C [7]: 99.5% | viability, T/C [8]: 109% | viability, T/C [9]: 111% | viability, T/C [10]: 116% | viability, T/C [11]: 118% | viability, T/C [12]: 100% | viability, T/C [13]: 108% | viability, T/C [14]: 106% | viability, T/C [15]: 103% | viability, T/C [16]: 98.7% | viability, T/C [17]: 105% | viability, T/C [18]: 98% | viability, T/C [19]: 107% | viability, T/C [20]: 95.9% | viability, T/C [21]: 107% | viability, T/C [22]: 114% | viability, T/C [23]: 95.2% | viability, T/C [24]: 84.7% | viability, T/C [25]: 91.7% | viability, T/C [26]: 99.9% | viability, T/C [27]: 103% | viability, T/C [28]: 115% | viability, T/C [29]: 111% | viability, T/C [30]: 91.5% | viability, T/C [31]: 86.4% | viability, T/C [32]: 102% | viability, T/C [33]: 114% | viability, T/C [34]: 89.3% | viability, T/C [35]: 98.1% | viability, T/C [36]: 92.6%

— PubChem BioAssay AID1963836 (Molecular Pharmacology Branch, DTP, NCI, 2024)
